{"source": "patent US6630466B2", "about": "“Medicament compositions containing anticholinergically-effective compounds and salmeterol” (priority 1999, dated 2003)", "key": {"[1]": {"system": "bronchial resistance of narcotized dogs", "assay": "Bronchospasmolytic effect: inhibition of ACh-induced increase of pulmonary resistance in narcotized dogs after inhalative application via […]", "assay_type": "in vivo, dog", "conditions": "single substances 3 and 10 μg, combination 3 μg + 3 μg", "method": "(§1) 18 mongrel dogs with a body weight of 27 to 32 kg. Kept in individual or communal cages, pelleted standard food, last fed approximately 15 hours before the start of the tests, drinking water freely available.\n(§2) After pre-medication with 2 mg/kg morphine hydrochloride i.m., 30 mg/kg pentobarbital-sodium (NEMBUTAL®) is slowly injected intravenously. The animals are relaxed with 1.0 mg/kg i.v. suxamethonium.\nAfter intubation via a servo ventilator 900C (Siemens), the animals are ventilated with ambient air and oxygen (4:1), frequency 15/min., breath volume 6 to 8 L/min. For registration of the breathing mechanics, breath flow is determined by means of a pressurizing pipe (flesh no. 1), installed directly before the orotracheal tube, of a differential pressure recorder and amplifier DCB-4C. A catheter is placed in the trachea and a second (balloon) catheter is placed in the lung section of the esophagus. Both are connected with a differential pressure recorder and amplifier for determination of the transpulmonary pressure. A breath mechanics computer (IFD-Mühlheim) determines the pulmonary resistance (R) from the registered pressure values. From this, a computer program VAS-1 LA (IFD-Mühlheim) calculates: [formula] […]"}, "[2]": {"system": "Heart Frequency of Narcotized Dogs", "assay": "Heart frequency of narcotized dogs after inhalative application via RESPIMAT (ECG, cardiotachometer)", "method": "as §1, §2\nRegistration of heart frequency is via ECG (extremity derivative II) and cardiotachometer.\nAfter an equilibration period of 30 minutes, short-term bronchospasms are generated by i.v. injection of 10 μg/kg acetylcholine chloride—this is repeated 2-3× within a 10-minute period. […] Application of the combinations takes place with the individual combinations with an interval of approximately 1 minute. With the BINEB system, the triggering mechanism takes place at the end of the expiration phase and the atomized solution is pressed into the tracheo-bronchial tree in the following inspiration phase of the breath pump."}, "[3]": {"conditions": "3 μg inhalative, 1 min after application, individual dog"}, "[4]": {"conditions": "3 μg inhalative, 5 min after application, individual dog"}, "[5]": {"conditions": "3 μg inhalative, 5 min after application, mean value, n = 6"}, "[6]": {"conditions": "3 μg inhalative, 10 min after application, individual dog"}, "[7]": {"conditions": "3 μg inhalative, 20 min after application, individual dog"}, "[8]": {"conditions": "3 μg inhalative, 30 min after application, individual dog"}, "[9]": {"conditions": "3 μg inhalative, 60 min after application, individual dog"}, "[10]": {"conditions": "3 μg inhalative, 120 min after application, individual dog"}, "[11]": {"conditions": "3 μg inhalative, 180 min after application, individual dog"}, "[12]": {"conditions": "3 μg inhalative, 180 min after application, mean value, n = 6"}, "[13]": {"conditions": "10 μg inhalative, 1 min after application, individual dog"}, "[14]": {"conditions": "10 μg inhalative, 5 min after application, individual dog"}, "[15]": {"conditions": "10 μg inhalative, 5 min after application, mean value, n = 6"}, "[16]": {"conditions": "10 μg inhalative, 10 min after application, individual dog"}, "[17]": {"conditions": "10 μg inhalative, 10 min after application, mean value, n = 6"}, "[18]": {"conditions": "10 μg inhalative, 20 min after application, individual dog"}, "[19]": {"conditions": "10 μg inhalative, 20 min after application, mean value, n = 6"}, "[20]": {"conditions": "10 μg inhalative, 30 min after application, individual dog"}, "[21]": {"conditions": "10 μg inhalative, 30 min after application, mean value, n = 6"}, "[22]": {"conditions": "10 μg inhalative, 60 min after application, individual dog"}, "[23]": {"conditions": "10 μg inhalative, 60 min after application, mean value, n = 6"}, "[24]": {"conditions": "10 μg inhalative, 120 min after application, individual dog"}, "[25]": {"conditions": "10 μg inhalative, 180 min after application, individual dog"}, "[26]": {"conditions": "10 μg inhalative, 180 min after application, mean value, n = 6"}}, "note": "Where “and” joins values, the source holds several entries; their conditions need not be identical. Identical values can stand only once. Counter-ions that a name gives are not always drawn.", "data": [{"smiles": "COc1ccc(CC(C)NCC(O)c2ccc(O)c(NC=O)c2)cc1", "note": "(centres unmarked) [formoterol fumarate, formoterol]", "values": [{"measurement": "onset of maximum bronchospasmolytic effect", "setting": "[1]", "value": "rapidly occurs"}, {"measurement": "effective duration of bronchospasmolytic effect", "setting": "[1]; test duration 180 minutes", "value": "comparatively short"}, {"measurement": "Heart frequency (beats/min.)", "setting": "[2]; [3]", "value": "67.00 beats/min. and 91.00 beats/min. and 102.00 beats/min."}, {"measurement": "Heart frequency, % alteration", "setting": "[2]; [3]", "value": "7.94% and −7.52% and 11.67% and 13.04% and 21.13% and 15.68%"}, {"measurement": "Heart frequency (beats/min.)", "setting": "[2]; 3 μg inhalative, 1 min after application, mean value, n = 6", "value": 103.17, "unit": "beats/min."}, {"measurement": "Heart frequency (beats/min.)", "setting": "[2]; [4]", "value": "140.00 beats/min. and 64.00 beats/min. and 95.00 beats/min."}, {"measurement": "Heart frequency, % alteration", "setting": "[2]; [4]", "value": "11.11% and 5.26% and 6.67% and 18.01% and 28.64% and 25.41%"}, {"measurement": "Heart frequency (beats/min.)", "setting": "[2]; [5]", "value": 109.50, "unit": "beats/min."}, {"measurement": "Heart frequency, % alteration", "setting": "[2]; [5]", "value": 15.85, "unit": "%"}, {"measurement": "Heart frequency (beats/min.)", "setting": "[2]; [6]", "value": "100.00 beats/min. and 110.00 beats/min."}, {"measurement": "Heart frequency, % alteration", "setting": "[2]; [6]", "value": "36.51% and 21.80% and 66.67% and 36.65% and 29.58%"}, {"measurement": "Heart frequency, % alteration", "setting": "[2]; 3 μg inhalative, 10 min after application, mean value, n = 6", "value": 37.72, "unit": "%"}, {"measurement": "Heart frequency (beats/min.)", "setting": "[2]; [7]", "value": "165.00 beats/min. and 95.00 beats/min. and 100.00 beats/min. and 141.00 beats/min."}, {"measurement": "Heart frequency, % alteration", "setting": "[2]; [7]", "value": "41.80% and 24.06% and 54.33% and 24.44% and 32.39% and 36.22%"}, {"measurement": "Heart frequency, % alteration", "setting": "[2]; 3 μg inhalative, 20 min after application, mean value, n = 6", "value": 36.17, "unit": "%"}, {"measurement": "Heart frequency (beats/min.)", "setting": "[2]; [8]", "value": "159.00 beats/min. and 89.00 beats/min. and 95.00 beats/min."}, {"measurement": "Heart frequency, % alteration", "setting": "[2]; [8]", "value": "46.03% and 48.33% and 18.01% and 38.38%"}, {"measurement": "Heart frequency, % alteration", "setting": "[2]; 3 μg inhalative, 30 min after application, mean value, n = 6", "value": 34.41, "unit": "%"}, {"measurement": "Heart frequency (beats/min.)", "setting": "[2]; [9]", "value": "86.00 beats/min. and 94.00 beats/min. and 140.00 beats/min."}, {"measurement": "Heart frequency, % alteration", "setting": "[2]; [9]", "value": "41.80% and 15.04% and 43.33% and 31.46% and 38.38%"}, {"measurement": "Heart frequency, % alteration", "setting": "[2]; 3 μg inhalative, 60 min after application, mean value, n = 6", "value": 31.13, "unit": "%"}, {"measurement": "Heart frequency (beats/min.)", "setting": "[2]; [10]", "value": "88.00 beats/min. and 94.00 beats/min. and 130.00 beats/min. and 120.00 beats/min."}, {"measurement": "Heart frequency, % alteration", "setting": "[2]; [10]", "value": "21.69% and 46.67% and 29.73%"}, {"measurement": "Heart frequency (beats/min.)", "setting": "[2]; [11]", "value": "140.00 beats/min. and 86.00 beats/min. and 96.00 beats/min. and 130.00 beats/min. and 120.00 beats/min."}, {"measurement": "Heart frequency, % alteration", "setting": "[2]; [11]", "value": "14.29% and 5.26% and 43.33% and 19.25% and 29.73%"}, {"measurement": "Heart frequency (beats/min.)", "setting": "[2]; [12]", "value": 113.33, "unit": "beats/min."}, {"measurement": "Heart frequency, % alteration", "setting": "[2]; [12]", "value": 22.32, "unit": "%"}, {"measurement": "Heart frequency (beats/min.)", "setting": "[2]; [13]", "value": 96.00, "unit": "beats/min."}, {"measurement": "Heart frequency, % alteration", "setting": "[2]; [13]", "value": "22.75% and 9.02% and 81.67% and 19.25% and −1.41% and 31.89%"}, {"measurement": "Heart frequency, % alteration", "setting": "[2]; 10 μg inhalative, 1 min after application, mean value, n = 6", "value": 27.20, "unit": "%"}, {"measurement": "Heart frequency (beats/min.)", "setting": "[2]; [14]", "value": "136.00 beats/min. and 120.00 beats/min. (2×)"}, {"measurement": "Heart frequency, % alteration", "setting": "[2]; [14]", "value": "61.90% and 2.26% and 143.33% and 49.07% and 12.68% and 31.89%"}, {"measurement": "Heart frequency (beats/min.)", "setting": "[2]; [15]", "value": 132.83, "unit": "beats/min."}, {"measurement": "Heart frequency, % alteration", "setting": "[2]; [15]", "value": 50.19, "unit": "%"}, {"measurement": "Heart frequency (beats/min.)", "setting": "[2]; [16]", "value": "191.00 beats/min. and 152.00 beats/min. and 144.00 beats/min. and 160.00 beats/min. and 130.00 beats/min. and 155.00 beats/min."}, {"measurement": "Heart frequency, % alteration", "setting": "[2]; [16]", "value": "64.02% and 43.61% and 153.33% and 78.88% and 50.23% and 40.54%"}, {"measurement": "Heart frequency (beats/min.)", "setting": "[2]; [17]", "value": 155.33, "unit": "beats/min."}, {"measurement": "Heart frequency, % alteration", "setting": "[2]; [17]", "value": 71.77, "unit": "%"}, {"measurement": "Heart frequency (beats/min.)", "setting": "[2]; [18]", "value": "204.00 beats/min. and 156.00 beats/min. and 135.00 beats/min. and 157.00 beats/min."}, {"measurement": "Heart frequency, % alteration", "setting": "[2]; [18]", "value": "66.14% and 53.38% and 155.00% and 93.79% and 48.36% and 45.95%"}, {"measurement": "Heart frequency (beats/min.)", "setting": "[2]; [19]", "value": 160.50, "unit": "beats/min."}, {"measurement": "Heart frequency, % alteration", "setting": "[2]; [19]", "value": 77.10, "unit": "%"}, {"measurement": "Heart frequency (beats/min.)", "setting": "[2]; [20]", "value": "207.00 beats/min. and 150.00 beats/min. (2×) and 156.00 beats/min. and 140.00 beats/min. and 159.00 beats/min."}, {"measurement": "Heart frequency, % alteration", "setting": "[2]; [20]", "value": "68.25% and 55.64% and 150.00% and 93.79% and 40.85% and 51.35%"}, {"measurement": "Heart frequency (beats/min.)", "setting": "[2]; [21]", "value": 160.33, "unit": "beats/min."}, {"measurement": "Heart frequency, % alteration", "setting": "[2]; [21]", "value": 76.65, "unit": "%"}, {"measurement": "Heart frequency (beats/min.)", "setting": "[2]; [22]", "value": "210.00 beats/min. and 149.00 beats/min. and 140.00 beats/min. (2×) and 150.00 beats/min. and 163.00 beats/min."}, {"measurement": "Heart frequency, % alteration", "setting": "[2]; [22]", "value": "72.49% and 57.89% and 148.33% and 73.91% and 40.85% and 51.35%"}, {"measurement": "Heart frequency (beats/min.)", "setting": "[2]; [23]", "value": 158.67, "unit": "beats/min."}, {"measurement": "Heart frequency, % alteration", "setting": "[2]; [23]", "value": 74.14, "unit": "%"}, {"measurement": "Heart frequency (beats/min.)", "setting": "[2]; [24]", "value": "209.00 beats/min. and 140.00 beats/min. and 135.00 beats/min. and 176.00 beats/min."}, {"measurement": "Heart frequency, % alteration", "setting": "[2]; [24]", "value": "86.24% and 57.14% and 143.33% and 73.91% and 45.95%"}, {"measurement": "Heart frequency, % alteration", "setting": "[2]; 10 μg inhalative, 120 min after application, mean value, n = 6", "value": 73.79, "unit": "%"}, {"measurement": "Heart frequency (beats/min.)", "setting": "[2]; [25]", "value": "205.00 beats/min. and 141.00 beats/min. and 130.00 beats/min. and 135.00 beats/min. and 152.00 beats/min."}, {"measurement": "Heart frequency, % alteration", "setting": "[2]; [25]", "value": "60.85% and 54.14% and 135.00% and 61.49% and 45.95%"}, {"measurement": "Heart frequency (beats/min.)", "setting": "[2]; [26]", "value": 151.33, "unit": "beats/min."}, {"measurement": "Heart frequency, % alteration", "setting": "[2]; [26]", "value": 65.59, "unit": "%"}, {"measurement": "maximum increase of heart frequency", "setting": "[2]; high dosage (10 μg)", "value": "over 90%"}, {"measurement": "increase of heart frequency after the end of the test", "setting": "[2]; high dosage (10 μg), end of test (180 minutes)", "value": "over 80%"}]}]}
